Patent US6730780B2, “Water-based ink” (Kao Corporation, priority 2000, dated 2004)

Columns and labels:
Format in all cases: physicochemical
[1] = Storage stability of ink (retention ratio of physical properties); conditions: ink containing the dye, stored at 60° C. for 3 months; for Retention Ratio of Physical Properties After Storage (%) Surface Tension: surface tension at 25° C.; for Retention Ratio of Physical Properties After Storage (%) Viscosity: viscosity at 25° C.
Method: In 10 g of toluene was dissolved 0.6 g of each dye obtained in Preparation Examples 1 to 5 or Reference Example 6 or 7, and 1.4 g of the vinyl polymer solution obtained in the above item (1) was added to the resulting mixed solution, and the mixture was sufficiently stirred to dissolve the dye.
Next, 5.21 g of a 1 N aqueous potassium hydroxide and 50 g of purified water were added to the resulting solution, and the mixture was further sufficiently stirred. After stirring, the mixture was emulsified with an ultrasonic homogenizer at 400 μA for 20 minutes. Thereafter, toluene was removed with heating under reduced pressure, and the resulting mixture was filtered with a 0.8 μm filter, to give a coloring material-containing emulsion in which the dye was contained in the vinyl polymer.
(§1) There were mixed together 8 parts by weight of a coloring material-containing emulsion obtained in the above item (2) or a 30% aqueous solution of a dye obtained in any one of Reference Examples 1 to 5, 10 parts by weight of trimethylglycine, 5 parts by weight of urea, 1 part by weight of sodium 2-ethylhexylsulfosuccinate and 76 parts by weight of purified water, to give an ink.
A. Storage Stability of Ink
A 100 mL bottle made of a fluorocarbon resin was charged with an ink, and the bottle was stored in the air at 60° C. for 3 months. As the physical properties, particle sizes before and after storage (determined by a particle size distribution analyzer commercially available from OtsuKa Denshi K.K. under the trade name of ELS-8000), viscosity (determined at 25° C. by a viscometer commercially available from Toki Sangyo K.K. under the trade name of VISCOMETER ELS-80L) and surface tension (determined at 25° C. by a surface tension meter commercially available from Kyowa Kaimen Kagaku K.K. under the trade name of AUTOMATIC Surface Tensiometer CBVP-Z) were examined. The retention ratio in each physical property was obtained in accordance with the following equation: [formula]

[2] = Light fastness of printed matter (OD residual ratio); conditions: ink containing the dye; printed matter irradiated at 10000 kJ/m^2, xenon fade meter
Source text: as §1
(§2) An inkjet printer cartridge (commercially available from CANON INC. under the trade name of BCI-21e) was charged with an ink, and the inkjet printer cartridge was loaded on a bubble jet printer (commercially available from CANON INC. under the model number of BJC430J). Printing was carried out on plain paper (commercially available from CANON INC. under the trade name of The Plain Paper for Inkjet Printing PB Paper) and on high-resolution coated paper (commercially available from CANON INC. under the trade name of (The High Resolution Coated Paper HR-101), and sufficiently dried. Thereafter, the following physical properties of the printed paper were evaluated. The results are shown in Table 2.
(3) Light Fastness
A printed matter of the PB Paper (commercially available from CANON INC.) was irradiated at 10000 kJ/m^2 with a xenon fade meter (commercially available from Suga Shikenki K.K. under the trade name of Low-temperature cycle-xenon-long life-fade meter). The optical density (OD) of the same site before and after irradiation was determined by using the same optical density analyzer as above. Its OD residual ratio was obtained in accordance with the following equation: [formula]

[3] = Water resistance of printed matter (OD residual ratio); conditions: ink containing the dye; printed matter soaked in purified water at 25° C. for 10 minutes
Source text: as §1, §2
(2) Water Resistance
The printed matter on a paper sheet for plain paper copy was soaked in purified water at 25° C. for 10 minutes, and thereafter water was sufficiently removed to be air-dried. The optical density (hereinafter referred to as OD) of the same site before and after soaking was determined by using an optical density analyzer [commercially available from Macbeth Process Measurements Co., umder the trade name of reflection densitometer RD-914]. Its OD residual ratio was obtained in accordance with the following equation: [formula]

[4] = Ozone resistance of printed matter; conditions: ink containing the dye; printed matter exposed to 3 ppm ozone for 2 hours
Source text: as §1, §2
(4) Ozone Resistance
A printed matter on a paper sheet for plain paper copy was exposed in a gas stream having an ozone concentration of 3 ppm for 2 hours, and the color tone (L*a*b*) before and after exposure was determined by using a colorinmeter [commercially available from Nippon Denshoku Kogyo Kabushiki Kaisha under the trade name of SE2000], and indicated by ΔE.

[5] = Solvent solubility of dye; set-up: key: ◯: Dye not being dissolved; x: Dye being dissolved; conditions: 20° C.
Method: Twenty parts by weight of a dye was added to 100 parts by weight of a solvent shown in Table 1, and whether or not the dye is dissolved in the solvent at 20° C. was observed. The evaluation was made on the basis of the following evaluation criteria:
x: Dye not being dissolved

[6] = Water resistance, alkali resistance and acid resistance of dye on plain paper; set-up: key: ◯: Dye not being dissolved; x: Dye being dissolved
Method: A. Water Resistance, Alkali Resistance and Acid Resistance
In 10 ml of tetrahydrofuran was dissolved 0.1 g of a dye. A paper sheet for plain paper copy [commercially available from XEROX CO., LTD. under the trade name of XEROX 4024] was immersed in the solution for 10 minutes, and thereafter taken out therefrom to be air-dried at 25° C. for 24 hours. After drying, the paper was immersed in water (water resistance), a 1 N-aqueous sodium bydroxide (alkali resistance), or a 1 N-aqueous hydrochloric acid (acid resistance) for 10 minutes to examine whether or not the dye is dissolved in each solvent. The evaluation was made on the basis of the following evaluation criteria:
◯: Dye not being dissolved

Row | Compound | Retention Ratio of Physical Properties After Storage (%) Particle Size [1] [%] | Retention Ratio of Physical Properties After Storage (%) Surface Tension [1] [%] | Retention Ratio of Physical Properties After Storage (%) Viscosity [1] [%] | Light Fastness [OD Residual Ratio (%)] [2] [%] | Water Resistance [OD Residual Ratio (%)] [3] [%] | Ozone Resistance (ΔE) [4] | Solvent Solubility 2-Butanone ([5]; 20 parts by weight dye in 100 parts by weight 2-butanone) | Solvent Solubility Ethanol ([5]; 20 parts by weight dye in 100 parts by weight ethanol) | Solvent Solubility Tetrahydrofuran ([5]; 20 parts by weight dye in 100 parts by weight tetrahydrofuran) | Solvent Solubility Toluene ([5]; 20 parts by weight dye in 100 parts by weight toluene) | Acid Resistance ([6]; dyed plain paper immersed in 1 N aqueous hydrochloric acid for 10 minutes) | Alkali Resistance ([6]; dyed plain paper immersed in 1 N aqueous sodium hydroxide for 10 minutes) | Water Resistance ([6]; dyed plain paper immersed in water for 10 minutes)
1 | CCCCN(CCCC)C(=O)C1=NN(c2ccc(S(=O)(=O)N(CCCC)CCCC)cc2)C(=O)C1N=Nc1ccc(S(=O)(=O)N(CCCC)CCCC)cc1 (centres unmarked) [Oil-Soluble Dye IB] | 98.4 | 97.3 | 95 | 98 | 100 | 0 | – | – | – | – | – | – | –
2 | CCCCCCN(CCCCCC)S(=O)(=O)c1ccc(N=NC2C(=O)N(c3cc(Cl)c(S(=O)(=O)N(CCCCCC)CCCCCC)cc3Cl)N=C2C)cc1 (centres unmarked) [Oil-Soluble Dye IC] | 99.4 | 98.5 | 100 | 100 | 100 | 0 | – | – | – | – | – | – | –
3 | CCCCN(CCCC)S(=O)(=O)c1cccc(N=Nc2ccc(NC(=O)Nc3ccc(N=Nc4cccc(S(=O)(=O)N(CCCC)CCCC)c4)cc3OC)c(OC)c2)c1 [Oil-Soluble Dye ID] | 101.3 | 97.0 | 96 | 94 | 100 | 0 | – | – | – | – | – | – | –
4 | C.I. Acid Red 289 [Dye a] | – | 99.7 | 105 | 73 | 84 | 4 | – | – | – | – | – | – | –
5 | C.I. Acid Yellow 17 [Dye c] | – | 98.6 | 105 | 93 | 42 | 3 | – | – | – | – | – | – | –
6 | C.I. Acid Yellow 23 [Dye b] | – | 96.6 | 96 | 87 | 40 | 5 | – | – | – | – | – | – | –
7 | C.I. Direct Yellow 86 [Dye d] | – | 93.9 | 92 | 86 | 56 | 10 | – | – | – | – | – | – | –
8 | C.I. Direct Yellow 132 [Dye e] | – | 101.2 | 105 | 82 | 35 | 0 | – | – | – | – | – | – | –
9 | C.I. Solvent Red 49 [Dye l] | 93 | 97.9 | 91 | 45 | 100 | 8 | ◯ | ◯ | ◯ | ◯ | ◯ | ◯ | ◯
